The values below come from the supplement of paper PMC11962398.

Where only a bound is given, the exact number is not on record here.

Compound in test [1]: T1, C[C@H]1CNCCN1c1nccc(-c2noc3c2CCC[C@@]32CCCc3sc(N)c(C#N)c32)n1 [BI-2493]
Description: 1 - AUC of viability dose-response curve (sensitivity) (fraction); higher = more sensitive. Particulars: 5 days. The protocol:
(§1)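 PRISM pooled barcoded cancer cell line viability screen (Broad Institute) with BI-2493 at 8 doses in threefold dilutions from 0.00457 to 10 µmol/L, 5-day treatment; curves fitted per cell line. IC50 is undefined (placeholder) for resistant lines. AUC is capped at 1, and sensitivity is reported as 1 − AUC.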

Compound in test [2]: T1, BI-2493
The note with it: 5 days. The method, then:
as §1

In the case of HEL_HAEMATOPOIETIC_AND_LYMPHOID_TISSUE, in the test with BI-2493 [1], the “1 - AUC of viability dose-response curve” value came out at 0.255. Also, the “IC50 of cell viability” value with BI-2493 [2] turned out to be 4.89 µM.
With HEP3B217_LIVER, in the test with BI-2493 [1], the “1 - AUC of viability dose-response curve” value came to 0.0726. Also, the “IC50 of cell viability” value in the test with BI-2493 [2] worked out at 6.95 µM.
Turning to HEPG2_LIVER, in the test with BI-2493 [1], the “1 - AUC of viability dose-response curve” value was determined as 0.0929. Further, in the test with BI-2493 [2], the “IC50 of cell viability” value worked out at 4.13 µM.
For the test system HEYA8_OVARY, the “1 - AUC of viability dose-response curve” value with BI-2493 [1] was 0.117. The “IC50 of cell viability” value in the test with BI-2493 [2] was found to be 3.57 µM.
For HGC27_STOMACH, the “1 - AUC of viability dose-response curve” value in the test with BI-2493 [1] worked out at 0.158. Besides, the “IC50 of cell viability” value in the test with BI-2493 [2] was 3.92 µM.
Regarding HH_HAEMATOPOIETIC_AND_LYMPHOID_TISSUE, the “1 - AUC of viability dose-response curve” value in the test with BI-2493 [1] was found to be 0.0743. Moreover, in the test with BI-2493 [2], the “IC50 of cell viability” value stood at 5.02 µM.
For HKA1_SKIN, in the test with BI-2493 [1], the “1 - AUC of viability dose-response curve” value amounted to 0.111. The “IC50 of cell viability” value with BI-2493 [2] came out at 4 µM.
Regarding HKGZCC_BILIARY_TRACT, the “1 - AUC of viability dose-response curve” value with BI-2493 [1] was found to be 0.281. Also, the “IC50 of cell viability” value with BI-2493 [2] was 1.41 µM.
HL60_HAEMATOPOIETIC_AND_LYMPHOID_TISSUE: the “1 - AUC of viability dose-response curve” value with BI-2493 [1] came out at 0.089. The “IC50 of cell viability” value in the test with BI-2493 [2] is > 10 µM.
Consider HLF_LIVER, for which the “1 - AUC of viability dose-response curve” value with BI-2493 [1] is 0.0644. Also, the “IC50 of cell viability” value with BI-2493 [2] came to 7.5 µM.
The matching figures for HMC18_BREAST: 0.15 and 4.86 µM.
Regarding HOS_BONE, the “1 - AUC of viability dose-response curve” value in the test with BI-2493 [1] was determined as 0.0734. In addition, in the test with BI-2493 [2], the “IC50 of cell viability” value worked out at 7.39 µM.
The matching figures for HOTHC_THYROID: 0.00917 and 9.68 µM.
The matching figures for HPAC_PANCREAS: 0.312 and 1.1 µM.
HPAFII_PANCREAS: in the test with BI-2493 [1], the “1 - AUC of viability dose-response curve” value was 0.396. Also, in the test with BI-2493 [2], the “IC50 of cell viability” value was 0.582 µM.
“HPBALL_HAEMATOPOIETIC_AND_LYMPHOID_TISSUE”: the “1 - AUC of viability dose-response curve” value with BI-2493 [1] was 0.0862. For the same test system, the “IC50 of cell viability” value in the test with BI-2493 [2] was 4.23 µM.
With HS294T_SKIN, in the test with BI-2493 [1], the “1 - AUC of viability dose-response curve” value came to 0.0895. The “IC50 of cell viability” value in the test with BI-2493 [2] was determined as 5.34 µM.
As for “HS611T_HAEMATOPOIETIC_AND_LYMPHOID_TISSUE”, in the test with BI-2493 [1], the “1 - AUC of viability dose-response curve” value was < 0. Further, in the test with BI-2493 [2], the “IC50 of cell viability” value is > 10 µM.
Turning to HS683_CENTRAL_NERVOUS_SYSTEM, in the test with BI-2493 [1], the “1 - AUC of viability dose-response curve” value was found to be 0.0105. Besides, the “IC50 of cell viability” value in the test with BI-2493 [2] was 9.89 µM.
Turning to HS729_SOFT_TISSUE, the “1 - AUC of viability dose-response curve” value with BI-2493 [1] stood at 0.101. Also, the “IC50 of cell viability” value in the test with BI-2493 [2] came out at 8.7 µM.
The matching figures for HS766T_PANCREAS: 0.108 and 6.84 µM.
For HS852T_SKIN, in the test with BI-2493 [1], the “1 - AUC of viability dose-response curve” value stood at 0.00841. The “IC50 of cell viability” value in the test with BI-2493 [2] came out at 9.99 µM.
As for HS939T_SKIN, the “1 - AUC of viability dose-response curve” value in the test with BI-2493 [1] amounted to 0.0542. Also, the “IC50 of cell viability” value with BI-2493 [2] came to 8.03 µM.
Turning to HS944T_SKIN, the “1 - AUC of viability dose-response curve” value in the test with BI-2493 [1] worked out at 0.103. The “IC50 of cell viability” value with BI-2493 [2] was found to be 3.82 µM.
Regarding HSC1_SKIN, in the test with BI-2493 [1], the “1 - AUC of viability dose-response curve” value turned out to be 0.111. Further, the “IC50 of cell viability” value with BI-2493 [2] was 4.81 µM.
With HSC2_UPPER_AERODIGESTIVE_TRACT, the “1 - AUC of viability dose-response curve” value with BI-2493 [1] is 0.169. Also, in the test with BI-2493 [2], the “IC50 of cell viability” value stood at 3.64 µM.
As to HSC3_UPPER_AERODIGESTIVE_TRACT, in the test with BI-2493 [1], the “1 - AUC of viability dose-response curve” value came to 0.138. Besides, the “IC50 of cell viability” value with BI-2493 [2] was found to be 5.44 µM.
On to HSC5_SKIN, for which the “1 - AUC of viability dose-response curve” value in the test with BI-2493 [1] came out at 0.126. In addition, the “IC50 of cell viability” value in the test with BI-2493 [2] was found to be 5.05 µM.
For the test system HSKTC_OVARY, the “1 - AUC of viability dose-response curve” value in the test with BI-2493 [1] came out at 0.166. The “IC50 of cell viability” value with BI-2493 [2] was determined as 4.41 µM.
For the test system HT3_CERVIX, the “1 - AUC of viability dose-response curve” value in the test with BI-2493 [1] worked out at 0.17. Moreover, in the test with BI-2493 [2], the “IC50 of cell viability” value worked out at 5.97 µM.
